# Values joined by “and” are separate entries in the source; they are usually repeats but may differ in a detail not shown here. Equal entries are not always repeated.
# Organism: Rattus norvegicus
# Assay: DrugMatrix - Regimen: Daily Repeat
# Assay type: toxicity, organism-based, Sprague-Dawley
# Parameters: regimen Daily Repeat, gender Male, age 6-8 weeks
# Details: in vivo, po, route oral GAVAGE, vehicle .5 % CMC; for BASOPHIL / EOSINOPHIL / ERYTHROCYTE COUNT / HEMATOCRIT / HEMOGLOBIN / LEUKOCYTE COUNT / LYMPHOCYTE / MEAN CORPUSCULAR HEMOGLOBIN / MEAN CORPUSCULAR HEMOGLOBIN CONCENTRATION / MEAN CORPUSCULAR VOLUME / MONOCYTE / NEUTROPHIL / PLATELET COUNT / ABSOLUTE BASOPHIL / ABSOLUTE EOSINOPHIL / ABSOLUTE LYMPHOCYTE / ABSOLUTE MONOCYTE / ABSOLUTE SEGMENTED NEUTROPHIL: tissue Blood; for ALANINE AMINOTRANSFERASE / ALBUMIN / ALKALINE PHOSPHATASE / ASPARTATE AMINOTRANSFERASE / BLOOD UREA NITROGEN / CHLORIDE / CHOLESTEROL / CREATINE PHOSPHOKINASE / CREATININE / GLUCOSE / PHOSPHORUS / POTASSIUM / SODIUM / TOTAL BILIRUBIN / TOTAL PROTEIN / LACTATE DEHYDROGENASE / LIPASE / URIC ACID: tissue Plasma
# [1] = 0 mg/kg, 72 h, dose level Control, time 3 day
# [2] = 0 mg/kg, 120 h, dose level Control, time 5 day
# [3] = 0 mg/kg, 2184 h, dose level Control, time 91 day
# [4] = 0 mg/kg, […], dose level Control, time 28 day
# [5] = 80 mg/kg, 120 h, dose level Low, time 5 day
# [6] = 80 mg/kg, 2184 h, dose level Low, time 91 day
compound,measurement,setting,value
O=c1cc(-c2ccccc2)oc2ccc3ccccc3c12 [BETA-NAPHTHOFLAVONE],BASOPHIL,[1],0.52%
same,EOSINOPHIL,[1],0.48%
same,ERYTHROCYTE COUNT,[1],6.68 x10E6/uL
same,HEMATOCRIT,[1],43.07%
same,HEMOGLOBIN,[1],13.48 G/DL
same,LEUKOCYTE COUNT,[1],11.41 x10E3/uL
same,LYMPHOCYTE,[1],80.78%
same,MEAN CORPUSCULAR HEMOGLOBIN,[1],20.2 pg
same,MEAN CORPUSCULAR HEMOGLOBIN CONCENTRATION,[1],31.32 G/DL
same,MEAN CORPUSCULAR VOLUME,[1],64.45 fL
same,MONOCYTE,[1],2.23%
same,NEUTROPHIL,[1],14.73%
same,PLATELET COUNT,[1],1225.83 x10E3/uL
same,ALANINE AMINOTRANSFERASE,[1],44.5 u/L
same,ALBUMIN,[1],3.62 G/DL
same,ALKALINE PHOSPHATASE,[1],404.5 u/L
same,ASPARTATE AMINOTRANSFERASE,[1],71.67 u/L
same,BLOOD UREA NITROGEN,[1],15 mg/dL
same,CHLORIDE,[1],103 MEQ/L
same,CHOLESTEROL,[1],96.83 mg/dL
same,CREATINE PHOSPHOKINASE,[1],236 u/L
same,CREATININE,[1],0.43 mg/dL
same,GLUCOSE,[1],186.83 mg/dL
same,PHOSPHORUS,[1],12.67 mg/dL
same,POTASSIUM,[1],7.1 MEQ/L
same,SODIUM,[1],147.33 MEQ/L
same,TOTAL BILIRUBIN,[1],0.52 mg/dL
same,TOTAL PROTEIN,[1],6.18 G/DL
same,ABSOLUTE BASOPHIL,[2],92 cells/µL
same,ABSOLUTE EOSINOPHIL,[2],52 cells/µL
same,ABSOLUTE LYMPHOCYTE,[2],6560 cells/µL
same,ABSOLUTE MONOCYTE,[2],160 cells/µL
same,ABSOLUTE SEGMENTED NEUTROPHIL,[2],1130 cells/µL
same,BASOPHIL,[2],1.14% and 0.92%
same,EOSINOPHIL,[2],0.68% and 0.43%
same,ERYTHROCYTE COUNT,[2],7.51 x10E6/uL and 7.03 x10E6/uL
same,HEMATOCRIT,[2],46.04% and 46.55%
same,HEMOGLOBIN,[2],15.62 G/DL and 14.32 G/DL
same,LEUKOCYTE COUNT,[2],8.03 x10E3/uL and 12.22 x10E3/uL
same,LYMPHOCYTE,[2],81.54% and 82.65%
same,MEAN CORPUSCULAR HEMOGLOBIN,[2],20.84 pg and 20.35 pg
same,MEAN CORPUSCULAR HEMOGLOBIN CONCENTRATION,[2],33.94 G/DL and 30.77 G/DL
same,MEAN CORPUSCULAR VOLUME,[2],61.42 fL and 66.28 fL
same,MONOCYTE,[2],2% and 2.28%
same,NEUTROPHIL,[2],14.24% and 12.73%
same,PLATELET COUNT,[2],1427.2 x10E3/uL and 1268.67 x10E3/uL
same,ALANINE AMINOTRANSFERASE,[2],35.6 u/L and 44.5 u/L
same,ALBUMIN,[2],3.64 G/DL and 3.73 G/DL
same,ALKALINE PHOSPHATASE,[2],233 u/L and 340.83 u/L
same,ASPARTATE AMINOTRANSFERASE,[2],81 u/L and 66.5 u/L
same,BLOOD UREA NITROGEN,[2],12 mg/dL and 13.33 mg/dL
same,CHLORIDE,[2],109.4 MEQ/L and 102.17 MEQ/L
same,CHOLESTEROL,[2],47.6 mg/dL and 82.17 mg/dL
same,CREATINE PHOSPHOKINASE,[2],183.2 u/L and 146.67 u/L
same,CREATININE,[2],0.4 mg/dL and 0.35 mg/dL
same,GLUCOSE,[2],134.6 mg/dL and 186.17 mg/dL
same,LACTATE DEHYDROGENASE,[2],89.4 u/L
same,LIPASE,[2],17.2 u/L
same,PHOSPHORUS,[2],13.02 mg/dL and 11.83 mg/dL
same,POTASSIUM,[2],7 MEQ/L and 6.47 MEQ/L
same,SODIUM,[2],149.6 MEQ/L and 148.83 MEQ/L
same,TOTAL PROTEIN,[2],6.06 G/DL and 6.27 G/DL
same,URIC ACID,[2],1.04 mg/dL
same,ABSOLUTE BASOPHIL,[3],130 cells/µL
same,ABSOLUTE EOSINOPHIL,[3],70 cells/µL
same,ABSOLUTE LYMPHOCYTE,[3],8670 cells/µL
same,ABSOLUTE MONOCYTE,[3],160 cells/µL
same,ABSOLUTE SEGMENTED NEUTROPHIL,[3],1530 cells/µL
same,BASOPHIL,[3],1.13%
same,EOSINOPHIL,[3],0.66%
same,ERYTHROCYTE COUNT,[3],9.13 x10E6/uL
same,HEMATOCRIT,[3],48.47%
same,HEMOGLOBIN,[3],16.56 G/DL
same,LEUKOCYTE COUNT,[3],10.5 x10E3/uL
same,LYMPHOCYTE,[3],81.63%
same,MEAN CORPUSCULAR HEMOGLOBIN,[3],18.16 pg
same,MEAN CORPUSCULAR HEMOGLOBIN CONCENTRATION,[3],34.14 G/DL
same,MEAN CORPUSCULAR VOLUME,[3],53.14 fL
same,MONOCYTE,[3],1.53%
same,NEUTROPHIL,[3],14.71%
same,PLATELET COUNT,[3],1280.22 x10E3/uL
same,ALANINE AMINOTRANSFERASE,[3],28.89 u/L
same,ALBUMIN,[3],3.69 G/DL
same,ALKALINE PHOSPHATASE,[3],101.11 u/L
same,ASPARTATE AMINOTRANSFERASE,[3],70.67 u/L
same,BLOOD UREA NITROGEN,[3],16.78 mg/dL
same,CHLORIDE,[3],104.56 MEQ/L
same,CHOLESTEROL,[3],58.78 mg/dL
same,CREATINE PHOSPHOKINASE,[3],91.22 u/L
same,CREATININE,[3],0.61 mg/dL
same,GLUCOSE,[3],142.33 mg/dL
same,LACTATE DEHYDROGENASE,[3],81.67 u/L
same,LIPASE,[3],13 u/L
same,PHOSPHORUS,[3],7.54 mg/dL
same,POTASSIUM,[3],6.27 MEQ/L
same,SODIUM,[3],149.89 MEQ/L
same,TOTAL BILIRUBIN,[3],0.19 mg/dL
same,TOTAL PROTEIN,[3],7.12 G/DL
same,URIC ACID,[3],0.97 mg/dL
same,ABSOLUTE BASOPHIL,[4],150 cells/µL
same,ABSOLUTE EOSINOPHIL,[4],54 cells/µL
same,ABSOLUTE LYMPHOCYTE,[4],8890 cells/µL
same,ABSOLUTE MONOCYTE,[4],190 cells/µL
same,ABSOLUTE SEGMENTED NEUTROPHIL,[4],2250 cells/µL
same,BASOPHIL,[4],1.26%
same,EOSINOPHIL,[4],0.46%
same,ERYTHROCYTE COUNT,[4],8.34 x10E6/uL
same,HEMATOCRIT,[4],48.66%
same,HEMOGLOBIN,[4],16.04 G/DL
same,LEUKOCYTE COUNT,[4],11.58 x10E3/uL
same,LYMPHOCYTE,[4],76.74%
same,MEAN CORPUSCULAR HEMOGLOBIN,[4],19.2 pg
same,MEAN CORPUSCULAR HEMOGLOBIN CONCENTRATION,[4],32.92 G/DL
same,MEAN CORPUSCULAR VOLUME,[4],58.32 fL
same,MONOCYTE,[4],1.76%
same,NEUTROPHIL,[4],19.44%
same,PLATELET COUNT,[4],1282.6 x10E3/uL
same,ALANINE AMINOTRANSFERASE,[4],27 u/L
same,ALBUMIN,[4],3.68 G/DL
same,ALKALINE PHOSPHATASE,[4],146.2 u/L
same,ASPARTATE AMINOTRANSFERASE,[4],66.6 u/L
same,BLOOD UREA NITROGEN,[4],12.4 mg/dL
same,CHLORIDE,[4],104.6 MEQ/L
same,CHOLESTEROL,[4],59.6 mg/dL
same,CREATINE PHOSPHOKINASE,[4],121.8 u/L
same,CREATININE,[4],0.6 mg/dL
same,GLUCOSE,[4],143 mg/dL
same,LACTATE DEHYDROGENASE,[4],87.8 u/L
same,LIPASE,[4],17.4 u/L
same,PHOSPHORUS,[4],8.68 mg/dL
same,POTASSIUM,[4],6.02 MEQ/L
same,SODIUM,[4],152.8 MEQ/L
same,TOTAL BILIRUBIN,[4],0.26 mg/dL
same,TOTAL PROTEIN,[4],6.92 G/DL
same,URIC ACID,[4],0.52 mg/dL
same,ABSOLUTE BASOPHIL,[5],80 cells/µL
same,ABSOLUTE EOSINOPHIL,[5],62 cells/µL
same,ABSOLUTE LYMPHOCYTE,[5],9510 cells/µL
same,ABSOLUTE MONOCYTE,[5],180 cells/µL
same,ABSOLUTE SEGMENTED NEUTROPHIL,[5],1430 cells/µL
same,BASOPHIL,[5],0.74%
same,EOSINOPHIL,[5],0.56%
same,ERYTHROCYTE COUNT,[5],7.55 x10E6/uL
same,HEMATOCRIT,[5],45.54%
same,HEMOGLOBIN,[5],15.6 G/DL
same,LEUKOCYTE COUNT,[5],11.31 x10E3/uL
same,LYMPHOCYTE,[5],84.24%
same,MEAN CORPUSCULAR HEMOGLOBIN,[5],20.68 pg
same,MEAN CORPUSCULAR HEMOGLOBIN CONCENTRATION,[5],34.26 G/DL
same,MEAN CORPUSCULAR VOLUME,[5],60.36 fL
same,MONOCYTE,[5],1.58%
same,NEUTROPHIL,[5],12.46%
same,PLATELET COUNT,[5],1331 x10E3/uL
same,ALANINE AMINOTRANSFERASE,[5],31.8 u/L
same,ALBUMIN,[5],3.5 G/DL
same,ALKALINE PHOSPHATASE,[5],221.2 u/L
same,ASPARTATE AMINOTRANSFERASE,[5],79.4 u/L
same,BLOOD UREA NITROGEN,[5],10.4 mg/dL
same,CHLORIDE,[5],108.8 MEQ/L
same,CHOLESTEROL,[5],59.4 mg/dL
same,CREATINE PHOSPHOKINASE,[5],166.8 u/L
same,CREATININE,[5],0.52 mg/dL
same,GLUCOSE,[5],110.6 mg/dL
same,LACTATE DEHYDROGENASE,[5],103.8 u/L
same,LIPASE,[5],24.4 u/L
same,PHOSPHORUS,[5],11.66 mg/dL
same,POTASSIUM,[5],6.5 MEQ/L
same,SODIUM,[5],151 MEQ/L
same,TOTAL BILIRUBIN,[5],0.2 mg/dL
same,TOTAL PROTEIN,[5],6.1 G/DL
same,URIC ACID,[5],0.72 mg/dL
same,ABSOLUTE BASOPHIL,[6],410 cells/µL
same,ABSOLUTE EOSINOPHIL,[6],110 cells/µL
same,ABSOLUTE LYMPHOCYTE,[6],11200 cells/µL
same,ABSOLUTE MONOCYTE,[6],290 cells/µL
same,ABSOLUTE SEGMENTED NEUTROPHIL,[6],3040 cells/µL
same,BASOPHIL,[6],2.71%

# Source: ChEMBL document CHEMBL3885881, “DrugMatrix”
